# Laboratory results as given in US9868727B2, “Factor XIa inhibitors” (Merck Sharp & Dohme Corp., priority 2014, dated 2018).
# Experiments:
# [1] = biological target: T1, purified human Factor XIa (Homo sapiens, UniProt P03951); assay: Factor XIa Assay; format: biochemical; settings: fluorogenic substrate Z-Gly-Pro-Arg-AFC 100 μM, 40 pM enzyme, pH 7.4, read-out: F11a IC50
# T1 construct: purified human Factor XIa; purchased Sekisui Diagnostics
# Description: The effectiveness of a compound of the present invention as an inhibitor of Coagulation Factor XIa can be determined using a relevant purified serine protease, and an appropriate synthetic substrate. The rate of hydrolysis of the chromogenic or fluorogenic substrate by the relevant serine protease was measured both in the absence and presence of compounds of the present invention. Assays were conducted at room temperature or at 37° C. […] A decrease in the rate of fluorescence change in the presence of inhibitor is indicative of enzyme inhibition. Such methods are known to one skilled in the art. […]
# Factor XIa determinations were made in 50 mM HEPES buffer at pH 7.4 containing 150 mM NaCl, 5 mM CaCl2, and 0.1% PEG 8000 (polyethylene glycol; JT Baker or Fisher Scientific). Determinations were made using purified human Factor XIa at a final concentration of 40 pM (Sekisui Diagnostics) and he synthetic substrate, Z-Gly-Pro-Arg-AFC, TFA salt (Sigma #C0980) at a concentration of 100 μM.
# Activity assays were performed by diluting a stock solution of substrate at least tenfold to a final concentration ≦0.1 Km into a solution containing enzyme or enzyme equilibrated with inhibitor. Times required to achieve equilibration between enzyme and inhibitor were determined in control experiments. Initial velocities of product formation in the absence (VO) or presence of inhibitor (Vi) were measured. Assuming competitive inhibition, and that unity is negligible compared Km/[S], [I]/e, and [I]/e (where [S], [I], and e respectively represent the total concentrations, of substrate, inhibitor and enzyme), the equilibrium constant (Ki) for dissociation of the inhibitor from the enzyme can be obtained from the dependence of VO/Vi on [I] shown in the following equation.
# [2] = biological target: T2, purified Human plasma kallikrein (Homo sapiens, UniProt P03952); assay: Kallikrein Assay; format: biochemical; settings: Plasma Kallekrein IC50; fluorogenic substrate Acetyl-K-P-R-AFC, 0.5 nM enzyme, pH 7.4; read-out: PK IC50
# T2 construct: yields a heavy chain (371 amino acids) and a light chain (248 amino acids); purchased Enzyme Research Laboratories
# T2 sequence (P03952 391-638 limits assumed): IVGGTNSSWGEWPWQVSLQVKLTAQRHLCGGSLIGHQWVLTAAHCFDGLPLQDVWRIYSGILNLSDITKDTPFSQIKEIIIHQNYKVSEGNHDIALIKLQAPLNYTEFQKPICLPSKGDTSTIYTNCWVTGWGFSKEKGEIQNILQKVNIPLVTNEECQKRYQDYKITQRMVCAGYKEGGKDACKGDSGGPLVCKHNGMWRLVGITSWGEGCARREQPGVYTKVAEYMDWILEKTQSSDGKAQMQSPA
# T2 sequence (P03952 20-390 partner limits assumed): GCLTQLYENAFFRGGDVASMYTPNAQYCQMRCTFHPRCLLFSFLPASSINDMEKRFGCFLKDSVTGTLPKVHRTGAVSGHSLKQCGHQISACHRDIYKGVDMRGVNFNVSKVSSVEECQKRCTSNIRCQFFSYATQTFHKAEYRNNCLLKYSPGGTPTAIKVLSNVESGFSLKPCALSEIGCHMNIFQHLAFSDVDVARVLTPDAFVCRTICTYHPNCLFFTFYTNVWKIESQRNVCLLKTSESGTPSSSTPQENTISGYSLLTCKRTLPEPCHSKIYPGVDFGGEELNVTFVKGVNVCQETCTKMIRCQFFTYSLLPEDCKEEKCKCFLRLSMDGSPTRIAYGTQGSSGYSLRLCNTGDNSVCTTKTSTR
# Description: The effectiveness of a compound of the present invention as an inhibitor of Kallikrein can be determined using a relevant purified serine protease, and an appropriate synthetic substrate. The rate of hydrolysis of the chromogenic or fluorogenic substrate by the relevant serine protease was measured both in the absence and presence of compounds of the present invention. Assays were conducted at room temperature or at 37° C. […] A decrease in the rate of fluorescence change in the presence of inhibitor is indicative of enzyme inhibition. Such methods are known to one skilled in the art. The results of this assay are expressed as the inhibitory constant, K1.
# Kallikrein determinations were made in 50 mM HEPES buffer at pH 7.4 containing 150 mM NaCl, 5 mM CaCl2, and 0.1% PEG 8000 (polyethylene glycol; Fisher Scientific). Determinations were made using purified Human plasma kallikrein at a final concentration of 0.5 nM (Enzyme Research Laboratories) and the synthetic substrate, Acetyl-K—P—R-AFC (Sigma # C6608) at a concentration of […].
# Times required to achieve equilibration between enzyme and inhibitor were determined in control experiments. The reactions were performed under linear progress curve conditions and fluorescence increase measured at 405 Ex/510 Em nm. […] IC50 was determined by inflection point from a four parameter logistic curve fit. Ki was calculated using the Cheng Prusoff equation, Ki=IC50/(1+([S]/Km)).
# T1 sequence (P03951 388-625 limits assumed): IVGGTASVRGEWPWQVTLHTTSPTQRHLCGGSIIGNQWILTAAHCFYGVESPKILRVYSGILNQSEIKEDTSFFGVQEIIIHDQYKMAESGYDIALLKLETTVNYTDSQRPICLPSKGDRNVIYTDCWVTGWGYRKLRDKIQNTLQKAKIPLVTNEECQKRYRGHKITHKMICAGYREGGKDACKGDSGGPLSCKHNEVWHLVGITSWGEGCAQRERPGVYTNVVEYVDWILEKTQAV
# T1 sequence (P03951 19-387 partner limits assumed): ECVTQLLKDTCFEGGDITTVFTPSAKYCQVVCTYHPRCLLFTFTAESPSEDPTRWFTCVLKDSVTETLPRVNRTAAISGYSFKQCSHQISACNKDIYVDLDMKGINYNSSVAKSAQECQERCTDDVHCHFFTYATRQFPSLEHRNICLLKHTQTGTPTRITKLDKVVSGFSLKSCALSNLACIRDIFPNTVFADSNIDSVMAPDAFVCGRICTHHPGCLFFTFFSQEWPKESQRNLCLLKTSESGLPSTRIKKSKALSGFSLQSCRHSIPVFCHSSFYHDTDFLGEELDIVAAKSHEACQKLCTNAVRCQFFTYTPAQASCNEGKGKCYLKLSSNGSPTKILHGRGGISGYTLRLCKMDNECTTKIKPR
Structure (SMILES),IC50 [1] [nM],IC50 [2] [nM]
"Nc1ccc(-c2c[nH]c(C(CC3CC3)c3ccc(-c4cc(Cl)ccc4-n4cnnn4)c[n+]3[O-])n2)cn1 (single isomer, unassigned) [Example 49]",19.5,2120
"O=C(O)c1cccc(-c2cnc(C(CC3CC3)c3ccc(-c4cc(Cl)ccc4-n4cnnn4)c[n+]3[O-])[nH]2)c1F (single isomer, unassigned) [Example 51, 3-[2-(1-{5-[5-chloro-2-(1H-tetrazol-1-yl)phenyl]-1-oxidopyridin-2-yl}-2-cyclopropylethyl)-1H-imidazol-5-yl]-2-fluorobenzoic acid]",0.87,80
"COC(=O)Nc1ccc(-c2cnc(C(CC3CC3)c3ccc(-c4cc(Cl)ccc4-n4cnnn4)c[n+]3[O-])[nH]2)c(C)c1 (single isomer, unassigned) [Example 33]",19,625
"COC(=O)Nc1ccc(-c2cnc(C(CC3(C)CC3)c3ccc(-c4cc(Cl)ccc4-n4cnnn4)c[n+]3[O-])[nH]2)cc1 (single isomer, unassigned) [Example 43]",48.2,887
"O=C(O)c1cccc(-c2c[nH]c(C(CC3CC3)c3ccc(-c4cc(Cl)ccc4-n4cnnn4)c[n+]3[O-])n2)c1 (single isomer, unassigned) [Example 53]",0.9,62
"O=C(O)c1scc(-c2c[nH]c(C(Cc3ccccc3)c3ccc(-c4cc(Cl)ccc4-n4cnnn4)c[n+]3[O-])n2)c1F (single isomer, unassigned) [Example 10]",10.1,117
"COC(=O)Nc1ccc(-c2cnc(C(CC3CC3)c3ccc(-c4cc(Cl)ccc4-c4cnco4)c[n+]3[O-])[nH]2)cc1 (single isomer, unassigned) [Example 69]",48,358
COC(=O)Nc1ccc(-c2cnc(C(CC3CC3)c3ccc(-c4cc(Cl)ccc4-c4csnn4)c[n+]3[O-])[nH]2)cc1 (racemic) [Example 72],51.5,2610
"COC(=O)Nc1ccc(-c2cnc(C(CC3CC3)c3ccc(-c4cc(Cl)ccc4-n4cnnn4)c[n+]3[O-])[nH]2)cc1F (single isomer, unassigned) [Example 40]",1.52,39
"[O-][n+]1cc(-c2cc(Cl)ccc2-n2cnnn2)ccc1C(Cc1ccccc1)c1nc(-c2cccc(F)c2)c[nH]1 (single isomer, unassigned) [Example 4]",38.9,624
"O=C(O)c1ccc(-c2cnc(C(CC3CC3)c3ccc(-c4cc(Cl)ccc4-n4cnnn4)c[n+]3[O-])[nH]2)cc1 (single isomer, unassigned) [Example 56]",11,241
"N#Cc1ccc(-c2c[nH]c(C(Cc3ccc(F)cc3)c3ccc(-c4cc(Cl)ccc4-n4cnnn4)c[n+]3[O-])n2)cc1 (single isomer, unassigned) [Example 20]",1.54,28.8
"COC(=O)Nc1ccc(-c2nnc(C(Cc3ccccc3)c3ccc(-c4cc(Cl)ccc4-n4cnnn4)c[n+]3[O-])o2)cc1 (racemic) [Example 83, 5-(5-chloro-2-(1H-tetrazol-1-yl)phenyl)-2-(1-(5-(4-((methoxycarbonyl)amino)phenyl)-1,3,4-oxadiazol-2-yl)-2-phenylethyl)pyridine 1-oxide]",1.2,68
"NC(=O)c1scc(-c2cnc(C(CC3CC3)c3ccc(-c4cc(Cl)ccc4-n4cnnn4)c[n+]3[O-])[nH]2)c1F (single isomer, unassigned) [Example 60, 2-(1-(5-(5-carbamoyl-4-fluorothiophen-3-yl)-1H-imidazol-2-yl)-2-cyclopropylethyl)-5-(5-chloro-2-(1H-tetrazol-1-yl)phenyl)pyridine 1-oxide]",4.9,76
COC(=O)Nc1ccc(-c2cnc(C(CC3CC3)c3ccc(-c4cc(Cl)ccc4-n4cc(Cl)nn4)c[n+]3[O-])[nH]2)cc1 (racemic) [Example 67],6.51,208
"[O-][n+]1cc(-c2cc(Cl)ccc2-n2cnnn2)ccc1C(Cc1ccccc1)c1nc(-c2cccc(F)c2)c[nH]1 (single isomer, unassigned) [Example 3]",2.87,27.6
"N#Cc1ccc(-c2cnc(C(CC3CC3)c3ccc(-c4cc(Cl)ccc4-n4cnnn4)c[n+]3[O-])[nH]2)cc1 (single isomer, unassigned) [Example 29, 4-[2-(1-{5-[5-chloro-2-(1H-tetrazol-1-yl)phenyl]-1-oxidopyridin-2-yl}-2-cyclopropylethyl)-1H-imidazol-5-yl]benzonitrile]",2.85,226
"O=C(O)c1scc(-c2c[nH]c(C(Cc3ccccc3)c3ccc(-c4cc(Cl)ccc4-n4cnnn4)c[n+]3[O-])n2)c1F (single isomer, unassigned) [Example 9]",0.19,0.94
"COC(=O)Nc1ccc(-c2c[nH]c(C(Cc3ccc(F)cc3)c3ccc(-c4cc(Cl)ccc4C(F)F)c[n+]3[O-])n2)cc1 (single isomer, unassigned) [Example 11, 5-(5-chloro-2-(difluoromethyl)phenyl)-2-(2-(4-fluorophenyl)-1-(4-(4-((methoxycarbonyl)amino)phenyl)-1H-imidazol-2-yl)ethyl)pyridine 1-oxide]",1.86,10.1
"COC(=O)Nc1ccc(-c2[nH]c(C(CC3CC3)c3ccc(-c4cc(Cl)ccc4-n4cnnn4)c[n+]3[O-])nc2Cl)cc1 (single isomer, unassigned) [Example 79, 5-(5-chloro-2-(1H-tetrazol-1-yl)phenyl)-2-(1-(4-chloro-5-(4-((methoxycarbonyl)amino)phenyl)-1H-imidazol-2-yl)-2-cyclopropylethyl)pyridine 1-oxide]",0.5,24
COC(=O)Nc1ccc(-c2cnc([C@H](Cc3ccccc3)c3ccc(-c4cc(Cl)ccc4-c4cnco4)c[n+]3[O-])[nH]2)cc1 [Example 25],3.31,24.1
"COC(=O)Nc1ccc(-c2cnc(C(CC3CC3)c3ccc(-c4cc(Cl)ccc4-n4cnnn4)c[n+]3[O-])[nH]2)c(F)c1 (single isomer, unassigned) [Example 38]",0.48,38.5
"COC(=O)Nc1ccc(-c2nc([C@H](Cc3ccccc3)c3ccc(-c4cc(Cl)ccc4-n4cnnn4)c[n+]3[O-])[nH]c2Cl)cc1 [Example 1, (R) 5-(5-Chloro-2-(1H-tetrazol-1-yl)phenyl)-2-(1-(5-chloro-4-(4-((methoxycarbonyl)amino)phenyl)-1H-imidazol-2-yl)-2-phenylethyl)pyridine 1-oxide]",1.34,1.52
"COC(=O)Nc1ccc(-c2c[nH]c(C(CC3CC3)c3ccc(-c4c(-n5cnnn5)ccc(Cl)c4F)c[n+]3[O-])n2)cc1 (single isomer, unassigned) [Example 64, 5-(3-chloro-2-fluoro-6-(1H-tetrazol-1-yl)phenyl)-2-(2-cyclopropyl-1-(4-(4-((methoxycarbonyl)amino)phenyl)-1H-imidazol-2-yl)ethyl)pyridine 1-oxide]",,5.6
"COC(=O)Nc1ccc(-c2c[nH]c(C(CC3CC3)c3ccc(-c4c(-n5cnnn5)ccc(Cl)c4F)c[n+]3[O-])n2)cc1 (single isomer, unassigned) [Example 63, 5-(3-chloro-2-fluoro-6-(1H-tetrazol-1-yl)phenyl)-2-(2-cyclopropyl-1-(4-(4-((methoxycarbonyl)amino)phenyl)-1H-imidazol-2-yl)ethyl)pyridine 1-oxide]",,231
"COC(=O)Nc1ccc(-c2cnc(C(CC3CC3)c3ccc(-c4cc(Cl)ccc4-n4cnnn4)c[n+]3[O-])[nH]2)cc1 (single isomer, unassigned) [Example 27, 5-(5-chloro-2-(1H-tetrazol-1-yl)phenyl)-2-(2-cyclopropyl-1-(5-(4-((methoxycarbonyl)amino)phenyl)-1H-imidazol-2-yl)ethyl)pyridine 1-oxide]",,207
